Experimental findings from patent publication US20250353841A1 (BIOGEN MA INC., priority 2022, published 2025) are described below.

For this assay, the system named is mutant Huntington (HTT) protein. The experiment in a line: HTT Mutant HTRF iPSC assay (mHTT protein lowering). In kind it is cell-based. The settings on record: human iPSC derived from a HTT patient with a poly-Q49 mutation.

SMILES strings stand for the structures.

On to `Cc1cc(-c2cc(F)c3nc(C4CCNCC4)cn3c2)nn2ccnc12` [Compound 102, 6-(8-fluoro-2-(piperidin-4-yl)imidazo[1,2-a]pyridin-6-yl)-8-methylimidazo[1,2-b]pyridazine], for which the half-inhibitory concentration (IC50) fell in the range of 100 to 1000 nM. Compound `CCc1cc(-c2cc(F)c3nc(C4CCNCC4)cn3c2)cn2cc(C)nc12` [Compound 103, 8-ethyl-8′-fluoro-2-methyl-2′-(piperidin-4-yl)-6,6′-biimidazo[1,2-a]pyridine] gave an IC50 of 100 to 1000 nM.

With `Cn1ncc2cc(-c3cc(F)c4nc(C5CCNCC5)cn4c3)cc(F)c21` [Compound 104, 7-fluoro-5-(8-fluoro-2-(piperidin-4-yl)imidazo[1,2-a]pyridin-6-yl)-1-methyl-1H-indazole], the IC50 fell in the range of 1000 to 9000 nM. `Cc1cc(-c2cc(F)c3nc(C4CCNCC4)cn3c2)nn2cnnc12` [Compound 105, 6-(8-fluoro-2-(piperidin-4-yl)imidazo[1,2-a]pyridin-6-yl)-8-methyl-[1,2,4]triazolo[4,3-b]pyridazine]: the IC50 lay in the range of 1000 to 9000 nM.

`Cc1cn2nc(-c3cc(F)c4nc(C5CCN(C6CC6)CC5)cn4c3)ccc2n1` [Compound 106, 6-(2-(1-cyclopropylpiperidin-4-yl)-8-fluoroimidazo[1,2-a]pyridin-6-yl)-2-methylimidazo[1,2-b]pyridazine] displayed a half-maximal inhibitory concentration (IC50) below 100 nM. Under `Cc1cn2nc(-c3cc(F)c4nc(C5CC6(CNC6)C5)cn4c3)cc(C)c2n1` [Compound 107] stands 100 to 1000 nM; under `Cc1cn2nc(-c3cc(F)c4nc(C56CCC(N)(CC5)CC6)cn4c3)cc(C)c2n1` [Compound 108, 4-(6-(2,8-dimethylimidazo[1,2-b]pyridazin-6-yl)-8-fluoroimidazo[1,2-a]pyridin-2-yl)bicyclo[2.2.2]octan-1-amine], below 100 nM. Compound `Cc1cn2nc(-c3cc(F)c4nc(C56CC(N(C)C)(C5)C6)cn4c3)cc(C)c2n1` [Compound 109, 3-(6-(2,8-dimethylimidazo[1,2-b]pyridazin-6-yl)-8-fluoroimidazo[1,2-a]pyridin-2-yl)-N,N-dimethylbicyclo[1.1.1] pentan-1-amine] returned a half-maximal inhibitory concentration (IC50) below 100 nM. Compound `Cc1cn2nc(-c3cc(F)c4nc(C5CCNC6(CC6)C5)cn4c3)cc(C)c2n1` (stereo not drawn) [Compound 110, 6-(8-fluoro-2-(4-azaspiro[2.5]octan-7-yl)imidazo[1,2-a]pyridin-6-yl)-2,8-dimethylimidazo[1,2-b]pyridazine] gave an IC50 below 100 nM. Compound `Cc1cn2nc(-c3cc(F)c4nc(C5CCN(C)CC5)cn4c3)cc(C)c2n1` [Compound 111, 6-(8-fluoro-2-(1-methylpiperidin-4-yl)imidazo[1,2-a]pyridin-6-yl)-2,8-dimethylimidazo[1,2-b]pyridazine] returned an IC50 below 100 nM. Turning to `CCN1CCC(c2cn3cc(-c4cc(C)c5nc(C)cn5n4)cc(F)c3n2)CC1` [Compound 112, 6-(2-(1-ethylpiperidin-4-yl)-8-fluoroimidazo[1,2-a]pyridin-6-yl)-2,8-dimethylimidazo[1,2-b]pyridazine], the IC50 is below 100 nM. In the case of `Cc1cn2nc(-c3cc(F)c4nc(C5CCN(C6CC6)CC5)cn4c3)cc(C)c2n1` [Compound 113, 6-[2-(1-cyclopropyl-4-piperidyl)-8-fluoro-imidazo[1,2-a]pyridin-6-yl]-2,8-dimethyl-imidazo[1,2-b]pyridazine], the IC50 is below 100 nM. The compound `CCC(=O)N1CCC(c2cn3cc(-c4cc(C)c5nc(C)cn5n4)cc(F)c3n2)CC1` [Compound 120, 1-[4-[6-(2,8-dimethylimidazo[1,2-b]pyridazin-6-yl)-8-fluoro-imidazo[1,2-a]pyridin-2-yl]-1-piperidyl]propan-1-one] displayed an IC50 of 100 to 1000 nM. In turn, `Cc1cn2nc(-c3cc(F)c4nc(C5CCN(C(=O)C6CC6)CC5)cn4c3)cc(C)c2n1` [Compound 121, cyclopropyl(4-(6-(2,8-dimethylimidazo[1,2-b]pyridazin-6-yl)-8-fluoroimidazo[1,2-a]pyridin-2-yl)piperidin-1-yl)methanone] gave an IC50 of 100 to 1000 nM. Under `Fc1ccc2nc(-c3cc(F)c4nc(C5CCNCC5)cn4c3)cn2c1` [Compound 122, 6,8′-difluoro-2′-(piperidin-4-yl)-2,6′-biimidazo[1,2-a]pyridine] stands 1000 to 9000 nM.

As to `Cc1nc2c(C)cc(-c3cc(F)c4nc(C5CCNCC5)cn4c3)cn2n1` [Compound 123, 6-(8-fluoro-2-(piperidin-4-yl)imidazo[1,2-a]pyridin-6-yl)-2,8-dimethyl-[1,2,4]triazolo[1,5-a]pyridine], the IC50 fell in the range of 100 to 1000 nM. Turning to `Fc1cc(F)c2nc(-c3cc(F)c4nc(C5CCNCC5)cn4c3)oc2c1` [Compound 124, 4,6-difluoro-2-(8-fluoro-2-(piperidin-4-yl)imidazo[1,2-a]pyridin-6-yl)benzo[d]oxazole], the IC50 fell in the range of 1000 to 9000 nM. `Cc1cn2cc(-c3cc(F)c4nc(C5CCNCC5)cn4c3)nc(C)c2n1` [Compound 125, 6-(8-fluoro-2-(piperidin-4-yl)imidazo[1,2-a]pyridin-6-yl)-2,8-dimethylimidazo[1,2-a]pyrazine] yielded an IC50 of 100 to 1000 nM. For the compound `Cc1cn2nc(-c3cc(F)c4nc(C5CCNCC5)c(Cl)n4c3)ccc2n1` [Compound 126, 6-[3-chloro-8-fluoro-2-(4-piperidyl)imidazo[1,2-a]pyridin-6-yl]-2-methyl-imidazo[1,2-b]pyridazine], the IC50 is below 100 nM. Consider `Cc1cn2nc(-c3cc(F)c4nc(N5CCNCC5)cn4c3)cc(C)c2n1` [Compound 127, 6-(8-fluoro-2-piperazin-1-yl-imidazo[1,2-a]pyridin-6-yl)-2,8-dimethyl-imidazo[1,2-b]pyridazine], for which the IC50 was in the range of 1000 to 9000 nM. In the case of `CN1CCC(N(C)C(=O)c2cn3cc(-c4cc(F)c5nn(C)cc5c4)cc(F)c3n2)CC1` [Compound 129, 8-fluoro-6-(7-fluoro-2-methyl-indazol-5-yl)-N-methyl-N-(1-methyl-4-piperidyl)imidazo[1,2-a]pyridine-2-carboxamide], the IC50 lay in the range of 1000 to 9000 nM. Compound `Cc1cn2nc(-c3cn4cc(C5CC6CCC(C5)N6)cc(F)c4n3)cc(C)c2n1` (stereo not drawn) [Compound 130] yielded a concentration for half-maximal inhibition (IC50) of 1000 to 9000 nM.

`Cc1cn2nc(-c3cn4cc(C5CCNCC5)cc(F)c4n3)cc(C)c2n1` [Compound 131, 6-(8-fluoro-6-(piperidin-4-yl)imidazo[1,2-a]pyridin-2-yl)-2,8-dimethylimidazo[1,2-b]pyridazine] returned a half-maximal inhibitory concentration (IC50) of 100 to 1000 nM. On to `CCN1CCC(c2cc(F)c3nc(-c4cc(C)c5nc(C)cn5n4)cn3c2)CC1` [Compound 132], for which the IC50 fell in the range of 1000 to 9000 nM. For `Cc1cn2nc(-c3cn4cc(C5CCN(C)CC5)cc(F)c4n3)cc(C)c2n1` [Compound 133, 6-[8-fluoro-6-(1-methyl-4-piperidyl)imidazo[1,2-a]pyridin-2-yl]-2,8-dimethyl-imidazo[1,2-b]pyridazine], the IC50 lay within 1000 to 9000 nM. As to `Cc1cn2nc(-c3cn4cc(C5CCCNC5)cc(F)c4n3)cc(C)c2n1` (stereo not drawn) [Compound 134, 6-(8-fluoro-6-(piperidin-3-yl)imidazo[1,2-a]pyridin-2-yl)-2,8-dimethylimidazo[1,2-b]pyridazine], the half-maximal inhibitory concentration (IC50) is 1000 to 9000 nM. `Cc1cn2nc(-c3cc(F)c4cn(C5CCNCC5)nc4c3)cc(C)c2n1` [Compound 135, 6-(4-fluoro-2-(piperidin-4-yl)-2H-indazol-6-yl)-2,8-dimethylimidazo[1,2-b]pyridazine] gave a concentration for half-maximal inhibition (IC50) of 100 to 1000 nM.
